Source: PubChem BioAssay AID200 (DTP/NCI, 2004)
“And” between values parts separate entries of the source, which are not always exact repeats. Identical values can stand only once. Toxic doses and inconclusive results are not listed. Where a SMILES comes first, the peptide text is derived from it. The star is where a group is joined. Boc = CC(C)(C)OC(=O)*

Tested on: B6C3F1 mice, B16 melanoma ip, median survival T/C
Assay: NCI In Vivo Anticancer Drug Screen. Data for tumor model B16 Melanoma (intraperitoneal) in B6C3F1 mice
Conditions: endpoint: median survival time, schedule: Q01DX009 (ip), higher = longer survival
In short: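 Transplantable tumor in mice; treated vs vehicle control groups; survival or tumor size measured; value = T/C ratio.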

[1] = dose: 25.0 mg/kg/injection, vehicle: distilled water + Tween-80
[2] = dose: 50.0 mg/kg/injection, vehicle: saline with Tween-80
[3] = dose: 100.0 mg/kg/injection, vehicle: saline with Tween-80
[4] = dose: 200.0 mg/kg/injection, vehicle: saline with Tween-80
[5] = dose: 100.0 mg/kg/injection, vehicle: Klucel (hydroxypropylcellulose) (HPC)
[6] = dose: 200.0 mg/kg/injection, vehicle: Klucel (hydroxypropylcellulose) (HPC)
[7] = dose: 400.0 mg/kg/injection, vehicle: Klucel (hydroxypropylcellulose) (HPC)
[8] = dose: 12.5 mg/kg/injection, vehicle: Klucel (hydroxypropylcellulose) (HPC)
[9] = dose: 25.0 mg/kg/injection, vehicle: saline with Tween-80
[10] = dose: 25.0 mg/kg/injection, vehicle: saline
[11] = dose: 50.0 mg/kg/injection, vehicle: saline

O=C(O)CC(=O)O.[NH-]CC[NH-].[Pt+2]
T/C (dose: 12.5 mg/kg/injection, vehicle: dextrose): 175 % of control | T/C (dose: 25.0 mg/kg/injection, vehicle: dextrose): 86 % of control

CNC(=O)OCc1c(COC(=O)NC)c(-c2ccccc2)n(C)c1-c1ccccc1
T/C (dose: 12.5 mg/kg/injection, vehicle: distilled water + Tween-80): 172 % of control | T/C [1]: 177 % of control

CC(=O)NCCSC(=O)C(=O)SCCNC(C)=O
T/C [2]: 88 % of control | T/C [3]: 102 % of control | T/C [4]: 87 % of control

CN(CC(=O)O)C(=O)CNC(=O)CNC(=O)OCc1ccccc1 (HELM PEPTIDE1{[O=C(OCc1ccccc1)[*:2]].G.G.[Sar]}$$$$V2.0)
T/C [5]: 104 % of control | T/C [6]: 107 % of control | T/C [7]: 98 % of control

CC(=O)c1ccc([NH-])c([NH-])c1.[Cl][Pt+2][Cl]
T/C (dose: 2.5 mg/kg/injection, vehicle: distilled water + Tween-80): 116 % of control | T/C (dose: 5.0 mg/kg/injection, vehicle: distilled water + Tween-80): 116 % of control | T/C (dose: 10.0 mg/kg/injection, vehicle: distilled water + Tween-80): 114 % of control and 124 % of control | T/C (dose: 20.0 mg/kg/injection, vehicle: distilled water + Tween-80): 114 % of control | T/C (dose: 40.0 mg/kg/injection, vehicle: distilled water + Tween-80): 119 % of control

CCN(Cc1ccc(Cl)c(Cl)c1)c1ccc2nc(N)nc(N)c2c1C
T/C (dose: 3.12 mg/kg/injection, vehicle: water): 112 % of control and 123 % of control | T/C (dose: 3.13 mg/kg/injection, vehicle: distilled water + Tween-80): 120 % of control | T/C (dose: 6.25 mg/kg/injection, vehicle: water): 124 % of control | T/C (dose: 12.5 mg/kg/injection, vehicle: water): 92 % of control | T/C (dose: 25.0 mg/kg/injection, vehicle: water): 150 % of control

CN1CCCN(C(c2ccccc2)c2ccc(Br)cc2)CC1 (stereo unspecified)
T/C (dose: 18.0 mg/kg/injection, vehicle: saline): 98 % of control | T/C (dose: 36.0 mg/kg/injection, vehicle: saline): 92 % of control

CSCCC(NC(=O)C(CC(C)C)NC(=O)OC(C)(C)C)C(N)=O (stereo not drawn) (Boc-Leu-Met-NH2; configuration not given here)
T/C (dose: 50.0 mg/kg/injection, vehicle: Klucel (hydroxypropylcellulose) (HPC)): 86 % of control | T/C [5]: 98 % of control and 102 % of control | T/C [6]: 97 % of control and 100 % of control | T/C [7]: 101 % of control

COC12C(COC(=O)NCCO)C3=C(C(=O)C(C)=C(N)C3=O)N1CC1NC12 (stereo unspecified)
T/C (dose: 3.13 mg/kg/injection, vehicle: Klucel (hydroxypropylcellulose) (HPC)): 110 % of control | T/C [8]: 205 % of control | T/C (dose: 25.0 mg/kg/injection, vehicle: Klucel (hydroxypropylcellulose) (HPC)): 121 % of control

OCc1c(CO)c(-c2ccc(Cl)cc2)n2c1CCC2
T/C [1]: 94 % of control | T/C (dose: 50.0 mg/kg/injection, vehicle: distilled water + Tween-80): 107 % of control | T/C (dose: 100.0 mg/kg/injection, vehicle: distilled water + Tween-80): 121 % of control | T/C (dose: 200.0 mg/kg/injection, vehicle: distilled water + Tween-80): 198 % of control

Cc1c(C)c2c(c(C)c1OC(=O)CCC(=O)O)CCC(C)(CCCC(C)CCCC(C)CCCC(C)C)O2 (stereo unspecified)
T/C (dose: 25.0 mg/kg/injection, vehicle: distilled water + Tween-80 + alcohol): 96 % of control | T/C (dose: 50.0 mg/kg/injection, vehicle: distilled water + Tween-80 + alcohol): 112 % of control | T/C (dose: 100.0 mg/kg/injection, vehicle: distilled water + Tween-80 + alcohol): 114 % of control | T/C (dose: 200.0 mg/kg/injection, vehicle: distilled water + Tween-80 + alcohol): 86 % of control

C#CCNC1=C(C)C(=O)C2=C(C1=O)[C@H](COC(N)=O)[C@]1(OC)[C@@H]3N[C@@H]3CN21
T/C (dose: 0.75 mg/kg/injection, vehicle: distilled water + Tween-80): 91 % of control | T/C (dose: 1.5 mg/kg/injection, vehicle: distilled water + Tween-80): 98 % of control | T/C (dose: 6.25 mg/kg/injection, vehicle: distilled water + Tween-80): 241 % of control | T/C (dose: 12.0 mg/kg/injection, vehicle: distilled water + Tween-80): 98 % of control

CCOc1ncc([N+](=O)[O-])c(OCC)n1
T/C [2]: 89 % of control and 106 % of control | T/C [3]: 103 % of control | T/C [4]: 91 % of control and 96 % of control

COc1cccc2c1C(=O)c1c(O)c3c(c(O)c1C2=O)C[C@@](O)(C(=O)CO)C[C@@H]3OC1CC(N(C)C)C(O)C(C)O1 (stereo partly specified)
T/C (dose: 0.12 mg/kg/injection, vehicle: saline): 100 % of control | T/C (dose: 0.5 mg/kg/injection, vehicle: saline): 152 % of control and 166 % of control | T/C (dose: 1.0 mg/kg/injection, vehicle: saline): 153 % of control and 205 % of control | T/C (dose: 2.0 mg/kg/injection, vehicle: saline): 172 % of control and 261 % of control

C=C(C)C(=O)O[C@H]1CC2=C[C@@H](C[C@@]3(C)O[C@@H]3[C@H]3OC(=O)C(=C)[C@@H]31)OC2=O
T/C (dose: 3.75 mg/kg/injection, vehicle: Klucel (hydroxypropylcellulose) (HPC)): 101 % of control | T/C (dose: 7.5 mg/kg/injection, vehicle: Klucel (hydroxypropylcellulose) (HPC)): 107 % of control | T/C (dose: 15.0 mg/kg/injection, vehicle: Klucel (hydroxypropylcellulose) (HPC)): 103 % of control

CCCCc1ccc2nc(NC(=O)OC)[nH]c2c1
T/C [9]: 154 % of control | T/C [2]: 165 % of control | T/C [3]: 165 % of control

CCC1OC(OC)C=CC1=O (stereo unspecified)
T/C (dose: 12.5 mg/kg/injection, vehicle: saline): 106 % of control | T/C [10]: 108 % of control | T/C [11]: 104 % of control

COc1cc2cc(c1Cl)N1CC(=O)C(C)(O)C(=O)N(C)C(C)C(=O)OC(CC1=O)C1(C)OC1C(C)C1CC(O)(NC(=O)O1)C(OC)/C=C\C=C(\C)C2OC (stereo unspecified)
T/C (dose: 4.0 micrograms/kg/injection, vehicle: distilled water + alcohol): 109 % of control | T/C (dose: 8.0 micrograms/kg/injection, vehicle: distilled water + alcohol): 93 % of control | T/C (dose: 16.0 micrograms/kg/injection, vehicle: distilled water + alcohol): 111 % of control | T/C (dose: 32.0 micrograms/kg/injection, vehicle: distilled water + alcohol): 95 % of control

Cc1ccc(N=NN(C)C)c2cccnc12
T/C (dose: 3.13 mg/kg/injection, vehicle: other): 106 % of control | T/C (dose: 6.25 mg/kg/injection, vehicle: other): 95 % of control | T/C (dose: 12.5 mg/kg/injection, vehicle: other): 108 % of control | T/C (dose: 25.0 mg/kg/injection, vehicle: other): 114 % of control | T/C (dose: 50.0 mg/kg/injection, vehicle: other): 115 % of control

CC(C)C(NC(=O)OC(C)(C)C)C(=O)O (stereo unspecified)
T/C [5]: 90 % of control

CC(=O)Nc1ccc(/C=N/Nc2ccc([N+](=O)[O-])cn2)cc1
T/C (dose: 12.5 mg/kg/injection, vehicle: saline with Tween-80): 89 % of control | T/C [9]: 89 % of control

NC(CC(=O)CCl)C(=O)O (stereo unspecified)
T/C (dose: 6.25 mg/kg/injection, vehicle: Klucel (hydroxypropylcellulose) (HPC)): 106 % of control | T/C [8]: 101 % of control

O=c1ncccn1[C@@H]1O[C@H](CO)[C@H](O)C1O (stereo partly specified)
T/C [10]: 122 % of control | T/C [11]: 116 % of control and 107 % of control | T/C (dose: 100.0 mg/kg/injection, vehicle: saline): 122 % of control | T/C (dose: 200.0 mg/kg/injection, vehicle: saline): 120 % of control and 122 % of control | T/C (dose: 400.0 mg/kg/injection, vehicle: saline): 180 % of control
